{"source": "patent US20030180398A1", "about": "“Composition for treating gastric ulcer and a process for preparing the same” (priority 2002, published 2003)", "key": {"[1]": {"tested_on": "Cold Restraint Ulcer (CRU)", "assay": "Cold Restraint Ulcers (CRU) model", "assay_type": "in vivo, rats", "procedure": "Adult rats of either sex, weighing 150-175 grams are fasted for 24 hours in metallic cages with raised mesh bottoms to prevent coprophagia and were allowed free access to water. The test drugs were administered 45 minutes before immobilizing the animals. The rats were immobilized in the restraint cage and kept at 4° C. in BOD incubator for 2 hours (According to the method of Senay and Levine 1967). The animals were sacrificed immediately after the restraint period. The abdomen was cut opened; stomach was taken out and incised along the greater curvature to observe the gastric lesions with the help of Magnascope (5× magnification)\nThe following arbitrary scoring system was used to grade the severity and intensity of the lesions:\n1. Shedding of epithelium=10\n2. Petechial and frank hemorrhages=20\n4. More than two ulcers=40\nThe presence of any of these lesions was considered as a positive ulcerogenic response which has been shown as percentage of rats showing gastric lesions. The severity of ulcers is expressed in terms of ulcer index, which is the mean score of gastric lesions of all the rats in a group. The term Ulcer Index is defined as:\nUlcer Index (U.I.)=Us+Up×10^−1\nwhere Us=Mean severity of ulcer score and\nUp=Percentage of animals with Ulcer incidences\nThe percentage protection is calculated as follows:\nPercentage protection=(C−T/C)×100.\nwhere C=Number of animals showing ulcer response in control group and\nT=Number of animals showing ulcer response in test group."}, "[2]": {"tested_on": "Aspirin induced gastric ulcer", "assay": "Aspirin induced gastric ulcer model", "assay_type": "in vivo, rats", "procedure": "Gastric ulceration was induced by aspirin according to the method of Djahanguiri (1969). Aspirin (150 mg/Kg.) was administered per orally as a suspension in gum-acacia and the animal was sacrificed 5 hr. after the aspirin treatment and the ulcer index with protection index were calculated."}, "[3]": {"tested_on": "histamine induced duodenal ulcer", "assay": "Histamine induced duodenal ulcer model", "assay_type": "in vivo, Guinea pig", "procedure": "1. Animals were fasted for 24 hours with access to water.\n2. The drug was given orally 1 hour prior to the histamine administration.\n3. Histamine was administered in a dose of 0.25 mg/Kg, i.m. at 30 minutes interval for 7 times and it induced 100% duodenal ulceration in guinea pig (According to the method of Watt and Eagleton 1964).\n4. The animals were sacrificed after half an hour of last injection under ether anesthesia.\n5. The stomach along with duodenum were removed washed thoroughly and examined for the lesions. Ulcer index and protection index were calculated."}, "[4]": {"tested_on": "Alcohol induced gastric ulcers", "assay": "Alcohol (ethanol) induced gastric ulcers in rats", "assay_type": "in vivo", "procedure": "1. Adult rats of either sex were taken; weighing 150-175 grams were fasted for 24 hours with free access to water.\n2. The test drugs were administered (p.o.) 45 minutes before alcohol administration.\n3.1 ml of chilled absolute alcohol was administered (p.o.) to the rats (According to the Wittetal).\n4. Immediately after 1 hour, the animals were anesthetized, abdomen was cut opened stomach was taken out and incised along the greater curvature to observe the gastric lesions.\nThe ulcers are examined under the 5× magnification with the help of magnascope.\nAbsolute ethanol lesions appears as blackish lesions grouped in patches of varying size, usually parallel to the major axis of the stomach.\n5. The lengths of the lesions are measured and summated to give a total lesion score, then calculated and expressed in percentage."}, "[5]": {"tested_on": "pyloric ligation induced ulcer", "assay": "Pyloric ligation induced ulcer model", "assay_type": "in vivo, rats", "procedure": "1. Animals were fasted for 24 hours in the raised mesh bottom cages to prevent coprophagia and were allowed free access to water. 2. The control group of rats was feed with the vehicle and the experimental groups with their respective drugs 45 minutes prior to the ligation. 3. The animal was anesthetized, abdomen was cut opened under xiphoid process, and the pyloric portion of the stomach was slightly lifted and ligated avoiding any damage to the adjacent blood vessels (According to the method of Shay et al. 1945). 4. The animals were stitched and kept for 4 hours with free access to water. 5. After 4 hours the animals were sacrificed under ether anesthesia and the stomach was dissected out incised along the greater curvature. 6. The stomach was washed thoroughly and the ulcer index was scored as per in other ulcer models."}, "[6]": {"conditions": "Aspirin 150 mg/Kg p.o., 20 mg/Kg"}}}
{"compound": "COc1ccc2[nH]c([S+]([O-])Cc3ncc(C)c(OC)c3C)nc2c1", "note": "(centres unmarked) [Omeprazole]", "values": [{"measurement": "Mean severity of ulcer score", "setting": "[1]; 10 mg/Kg p.o.", "value": "07"}, {"measurement": "Percentage of ulcer incidence (No. of rats showing ulcer/total No. of rats used)", "setting": "[1]; 10 mg/Kg p.o.", "value": "50 (5/10) %"}, {"measurement": "Ulcer index", "setting": "[1]; 10 mg/Kg p.o.", "value": 5.7}, {"measurement": "Ulcer severity score 10 (Shedding of epithelium), No. of rats showing lesions/No. of rats tested", "setting": "[1]; 10 mg/Kg p.o.", "value": "3/10"}, {"measurement": "Ulcer severity score 20 (Petechial and frank hemorrhages), No. of rats showing lesions/No. of rats tested", "setting": "[1]; 10 mg/Kg p.o.", "value": "2/10"}, {"measurement": "Protection index", "setting": "[1]; 10 mg/Kg p.o., versus CRU control", "value": 54.03}, {"measurement": "Percentage protection in respect to the protection of Omeprazole", "setting": "[1]; 10 mg/Kg, standard taken as 100%", "value": 100, "unit": "%"}, {"measurement": "Mean severity of ulcer score", "setting": "[2]; [6]", "value": 6.6}, {"measurement": "Percentage of ulcer incidence (No. of rats showing ulcer/total No. of rats used)", "setting": "[2]; [6]", "value": "50 (3/6) %"}, {"measurement": "Ulcer index", "setting": "[2]; [6]", "value": 5.66}, {"measurement": "Ulcer severity score 10 (Shedding of epithelium), No. of rats showing lesions/No. of rats tested", "setting": "[2]; [6]", "value": "2/6"}, {"measurement": "Ulcer severity score 20 (Petechial and frank hemorrhages), No. of rats showing lesions/No. of rats tested", "setting": "[2]; [6]", "value": "1/6"}, {"measurement": "Protection index", "setting": "[2]; Aspirin 150 mg/Kg p.o., 20 mg/Kg, versus aspirin control", "value": 54.81}, {"measurement": "Percentage protection in respect to the protection of Omeprazole", "setting": "[2]; aspirin induced ulcer, 10 mg/Kg, standard taken as 100%", "value": 100, "unit": "%"}, {"measurement": "Mean severity of ulcer score", "setting": "[3]; Histamine i.m., 10 mg/Kg p.o.", "value": 6.66}, {"measurement": "Percentage of ulcer incidence (No. of animals showing ulcer/total No. of animals used)", "setting": "[3]; Histamine i.m., 10 mg/Kg p.o.", "value": "33.33 (1/3) %"}, {"measurement": "Ulcer index", "setting": "[3]; Histamine i.m., 10 mg/Kg p.o.", "value": 3.99}, {"measurement": "Ulcer severity score 20, No. Guinea pig showing lesions/No. Guinea pig tested", "setting": "[3]; Histamine i.m., 10 mg/Kg p.o.", "value": "1/3"}, {"measurement": "Volume of gastric fluid", "setting": "[3]; Histamine i.m., 10 mg/Kg p.o.", "value": "1.0 ± 0.2", "unit": "mL"}, {"measurement": "% Protection", "setting": "[3]; Histamine i.m., 10 mg/Kg p.o., versus ulcer control", "value": 70.79, "unit": "%"}, {"measurement": "Percentage protection in respect to the protection of Omeprazole", "setting": "[3]; histamine induced duodenal ulcer, Omeprazole taken as 100%", "value": 100, "unit": "%"}, {"measurement": "Length of hemorrhagic bands (mm ± SE)", "setting": "[4]; 100 mg/Kg p.o. + Ethanol", "value": "56.0 ± 9.12", "unit": "mm"}, {"measurement": "Percentage protection in respect to the protection of Omeprazole", "setting": "[4]; Alcohol induced ulcer, omeprazole taken as 100%", "value": 100.0, "unit": "%"}, {"measurement": "Ulcer index", "setting": "[5]; Ligation, 10 mg/Kg p.o.", "value": 6.6}, {"measurement": "Protection index", "setting": "[5]; Ligation, 10 mg/Kg p.o., versus ligation control", "value": 51.44}, {"measurement": "Percentage protection in respect to the protection of Omeprazole", "setting": "[5]; pyloric ligation induced ulcer, Omeprazole taken as 100%", "value": 100, "unit": "%"}]}
